Test: Test Example 2: persistence of Compound B concentration in mouse lung tissue (14C-labelled compounds)
Type: in vivo
Details: Balb/C mice (female), up to 72 h
[1] = intranasal 14C-labelled Compound A 0.3 and 1 μmol/kg

CCCCCCCC(=O)OC[C@@H](O)[C@@H](OC)[C@@H]1OC(C(=O)O)=C[C@H](NC(=N)N)[C@H]1NC(C)=O [化合物A, 5-アセタミド-4-グアニジノ-9-O-オクタノイル-2、3、4、5-テトラデオキシ-7-メトキシ-D-グリセロ-D-ガラクト-ノン-2-エノピラソン酸]
conversion of Compound A (ester derivative) to Compound B (active form) [1]: 速やかに変換される
persistence of Compound B (active form) concentration in lung tissue after administration of Compound A [1]: 長期にわたり持続した

CO[C@@H]([C@@H]1OC(C(=O)O)=C[C@H](NC(=N)N)[C@H]1NC(C)=O)[C@H](O)CO [化合物B, 5-アセタミド-4-グアニジノ-2、3、4、5-テトラデオキシ-7-メトキシ-D-グリセロ-D-ガラクト-ノン-2-エノピラソン酸, reference compound]
disappearance of Compound B from lung tissue (intranasal 14C-labelled Compound B 4 μmol/kg): 速やかに肺組織から消失した

Source: patent JP2008297320A (priority 2000, dated 2001)
